# Source: patent US9060511B2, “Compositions of dibromomalanomide and their use as biocides” (Rohm and Haas Company, priority 2010, dated 2015)
# Key:
# [1] = tested on: consortium of bacteria: mixture of Pseudomonas aeruginosa, Klebsiella pneumoniae, Staphylococcus aureus, and Bacillus subtilis; experiment: Growth inhibition assay (microtiter plate-based synergy assay); type: cell-based; conditions: for I90 (concentration required to inhibit at least 90% of bacterial growth when used alone) / I90 (concentration required for at least 90% inhibition of growth): active alone, 37° C., 24 hr; for I90 (concentration required for at least 90% inhibition of growth): Example 2; for % Inhibition of Growth: Example 3
# Excerpt: (§1) The results provided in the Examples are generated using a growth inhibition assay. Details of each assay are provided below.
# (§2) Growth Inhibition Assay. The growth inhibition assay used in the Examples measures inhibition of growth (or lack thereof) of a microbial consortium Inhibition of growth can be the result of killing of the cells (so no growth occurs), killing of a significant portion of the populations of cells so that regrowth requires a prolonged time, or inhibition of growth without killing (stasis). Regardless of the mechanism of action, the impact of a biocide (or combination of biocides) can be measured over time on the basis of an increase in the size of the community.
# (§3) The assay measures the efficacy of one or more biocides at preventing growth of a consortium of bacteria in a dilute mineral salts medium. The medium contains (in mg/l) the following components: FeCl3.6H2O (1); CaCl2.2H2O (10); MgSO4.7H2O (22.5); (NH4)2SO4 (40); KH2PO4 (10); K2HPO4 (25.5); Yeast Extract (10); and glucose (100). After all components are added to deionized water, the pH of the medium is adjusted to 7.5. Following filter sterilization, aliquots are dispensed in 100 μl quantities to sterile microtiter plate wells. Dilutions of 2,2-dibromomalonamide (“DBMAL”) and/or “Biocide B” are then added to the microtiter plate. After preparing the combinations of actives as illustrated below, each well is inoculated with 100 μl of a cell suspension containing ca. 1×10^6 cells per milliliter of a mixture of Pseudomonas aeruginosa, Klebsiella pneumoniae, Staphylococcus aureus, and Bacillus subtilis. The final total volume of medium in each well is […]. […] The resulting matrix allows testing of eight concentrations of each active and 64 combinations of actives in the ratios (of actives).
# (§4) Controls (not shown) contain the medium with no biocide added.
# (§5) Immediately after the microtiter plates are prepared, the optical density (OD) readings for each well is measured at 580 nm and the plates are then incubated at 37° C. for 24 hr. After the incubation period, the plates are gently agitated before OD580 values are collected. The OD580 values at T0 are subtracted from T24 values to determine the total amount of growth (or lack thereof) that occurs. These values are used to calculate the percent inhibition of growth caused by the presence of each biocide and each of the 64 combinations. A 90% inhibition of growth (I90) value is used as a threshold for calculating synergy index (SI) values with the following equation: Synergy Index=MDBMAL/CDBMAL+MB/CB
# (§6) where • CDBMAL: Concentration of DBMAL required to inhibit at least 90% of bacterial growth when used alone • CB: Concentration of biocide (B) required to inhibit at least 90% of bacterial growth when used alone. • MDBMAL: Concentration of DBMAL required to inhibit at least 90% of bacterial growth when used in combination with biocide (B). • MB: Concentration of biocide (B) required to inhibit at least 90% of bacterial growth when used in combination with DBMAL The SI values are interpreted as follows: • SI<1: Synergistic combination • SI=1: Additive combination • SI>1: Antagonistic combination
# (§7) In the Examples below, the amounts of biocides in the solution are measured in mg per liter of solution (mg/l). Since solution densities are approximately 1.00, the mg/1 measurement corresponds to weight and can be expressed as parts per million (ppm). Both units may therefore be used interchangeably in the Examples.
# [2] = as above; type: cell-based; conditions: Example 3
# Excerpt: as §1, §2, §3, §4, §5, §6, §7
smiles,measurement,setting,value
"[Ag] [Ag, silver]",I90 (concentration required to inhibit at least 90% of bacterial growth when used alone),[1]; Example 1 Experiment 1,0.063 mg/L
same,I90 (concentration required to inhibit at least 90% of bacterial growth when used alone),[1]; Example 1 subsequent experiment (Experiment 2),0.125 ppm
"[Cu] [Cu, copper]",I90 (concentration required for at least 90% inhibition of growth),[1],0.78 mg/L
"NC(=O)C(Br)(Br)C(N)=O [DBMAL, 2,2-dibromomalonamide]",inhibition at 0.2 µg/mL,[2]; DBMAL Alone 0.20 mg/l,2%
same,inhibition at 0.39 µg/mL,[2]; DBMAL Alone 0.39 mg/l,0%
same,inhibition at 0.78 µg/mL,[2]; DBMAL Alone 0.78 mg/l,4%
same,inhibition at 1.56 µg/mL,[2]; DBMAL Alone 1.56 mg/l,9%
same,inhibition at 3.13 µg/mL,[2]; DBMAL Alone 3.13 mg/l,21%
same,inhibition at 6.25 µg/mL,[2]; DBMAL Alone 6.25 mg/l,29%
same,inhibition at 12.5 µg/mL,[2]; DBMAL Alone 12.50 mg/l,100%
same,inhibition at 25 µg/mL,[2]; DBMAL Alone 25.00 mg/l,100%
same,I90 (concentration required to inhibit at least 90% of bacterial growth when used alone),[1]; Example 1 Experiment 1,12.5 mg/L
same,I90 (concentration required for at least 90% inhibition of growth),[1],12.5 mg/L
"[Zn] [Zn, zinc, reference compound]",% Inhibition of Growth,[1]; Zn Alone 19.5 mg/l,19%
same,% Inhibition of Growth,[1]; Zn Alone 39.1 mg/l,12%
same,% Inhibition of Growth,[1]; Zn Alone 78.1 mg/l,18%
same,% Inhibition of Growth,[1]; Zn Alone 156.3 mg/l,23%
same,% Inhibition of Growth,[1]; Zn Alone 312.5 mg/l,33%
same,% Inhibition of Growth,[1]; Zn Alone 625.0 mg/l,74%
same,% Inhibition of Growth,[1]; Zn Alone 1250.0 mg/l,91%
same,% Inhibition of Growth,[1]; Zn Alone 2500.0 mg/l,92%
